Laboratory results published in ChEMBL document CHEMBL6120973 (J Med Chem, 2024).

Experiments:
[1] = tested on: Human immunodeficiency virus 1; experiment: Antiviral activity against HIV-1 harboring RT Y181C mutant infected in human MT4 cells assessed as protection against virus-induced cytopathic effect incubated for 5 days by MTT assay; assay type: functional, organism-based; details: Human immunodeficiency virus 1, MT4, 120 h
[2] = tested on: Human immunodeficiency virus 1; experiment: Antiviral activity against HIV-1 harboring RT F227L/V106A double mutant infected in human MT4 cells assessed as protection against virus-induced cytopathic effect incubated for 5 days by MTT assay; assay type: functional, organism-based; details: Human immunodeficiency virus 1, MT4, 120 h
[3] = Cytotoxicity against human MT4 cells assessed as reduction in cell viability measured after 5 days by MTT assay
[4] = tested on: Human immunodeficiency virus 1; experiment: Antiviral activity against HIV-1 harboring RT Y188L mutant infected in human MT4 cells assessed as protection against virus-induced cytopathic effect incubated for 5 days by MTT assay; assay type: functional, organism-based; details: Human immunodeficiency virus 1, MT4, 120 h
[5] = tested on: Human immunodeficiency virus 1; experiment: Antiviral activity against HIV-1 harboring RT L100I mutant infected in human MT4 cells assessed as protection against virus-induced cytopathic effect incubated for 5 days by MTT assay; assay type: functional, organism-based; details: Human immunodeficiency virus 1, MT4, 120 h
[6] = tested on: Human immunodeficiency virus 1; experiment: Antiviral activity against HIV-1 harboring RT K103N mutant infected in human MT4 cells assessed as protection against virus-induced cytopathic effect incubated for 5 days by MTT assay; assay type: functional, organism-based; details: Human immunodeficiency virus 1, MT4, 120 h
[7] = Metabolic stability in human liver microsomes assessed as half-life at 0.1 uM preincubated for 10 mins followed by NADPH addition and measured upto 60 mins by LC-MS/MS analysis; assay type: ADME, Microsome; details: time < 70 min
[8] = target: Human immunodeficiency virus type 1 reverse transcriptase (Human immunodeficiency virus 1, UniProt Q72547); experiment: Inhibition of recombinant wild type HIV-1 Reverse transcriptase incubated for 40 mins by Pico-green reagent based fluorescence analysis
[9] = tested on: Human immunodeficiency virus 1; experiment: Antiviral activity against wildtype HIV-1 IIIB infected in human MT4 cells assessed as protection against virus-induced cytopathic effect incubated for 5 days by MTT assay; assay type: functional, organism-based; details: Human immunodeficiency virus 1, IIIB, MT4, 120 h
[10] = tested on: Human immunodeficiency virus 1; experiment: Antiviral activity against HIV-1 harboring RT K103N/Y181C double mutant infected in human MT4 cells assessed as protection against virus-induced cytopathic effect incubated for 5 days by MTT assay; assay type: functional, organism-based; details: Human immunodeficiency virus 1, MT4, 120 h
[11] = tested on: Human immunodeficiency virus 1; experiment: Antiviral activity against HIV-1 harboring RT E138K mutant infected in human MT4 cells assessed as protection against virus-induced cytopathic effect incubated for 5 days by MTT assay; assay type: functional, organism-based; details: Human immunodeficiency virus 1, MT4, 120 h
[12] = Metabolic stability in rat liver microsomes assessed as half-life at 0.1 uM preincubated for 10 mins followed by NADPH addition and measured upto 60 mins by LC-MS/MS analysis; assay type: ADME, Microsome; details: time < 70 min
[13] = Selectivity index, ratio of CC50 for human MT4 cells to EC50 for wild type HIV-1 IIIB infected in human MT4 cellS; details: MT4 cells
[14] = Clearance in male Sprague-Dawley rat at 1 mg/kg, iv measured after 24 hrs by LC-MS analysis; assay type: ADME, organism-based; details: in vivo
[15] = AUC (0 to t) in male Sprague-Dawley rat at 1 mg/kg, iv measured after 24 hrs by LC-MS analysis; assay type: ADME, organism-based; details: in vivo
[16] = Solubility of compound in phosphate buffer at pH 7.4 measured after 24 hrs by HPLC analysis; assay type: physicochemical
[17] = MRT (0 to infinity) in male Sprague-Dawley rat at 1 mg/kg, iv measured after 24 hrs by LC-MS analysis; assay type: ADME, organism-based; details: in vivo
[18] = Solubility of compound in phosphate buffer at pH 2.0 measured after 24 hrs by HPLC analysis; assay type: physicochemical
[19] = Tmax in male Sprague-Dawley rat at 1 mg/kg, iv measured after 24 hrs by LC-MS analysis; assay type: ADME, organism-based; details: in vivo
[20] = Half-life in male Sprague-Dawley rat at 10 mg/kg, po measured after 24 hrs by LC-MS analysis; assay type: ADME, organism-based; details: in vivo
[21] = AUC (0 to infinity) in male Sprague-Dawley rat at 10 mg/kg, po measured after 24 hrs by LC-MS analysis; assay type: ADME, organism-based; details: in vivo
[22] = AUC (0 to infinity) in male Sprague-Dawley rat at 1 mg/kg, iv measured after 24 hrs by LC-MS analysis; assay type: ADME, organism-based; details: in vivo
[23] = Oral bioavailability in male Sprague-Dawley rat at 10 mg/kg measured after 24 hrs by LC-MS analysis; assay type: ADME, organism-based; details: in vivo
[24] = AUC (0 to t) in male Sprague-Dawley rat at 10 mg/kg, po measured after 24 hrs by LC-MS analysis; assay type: ADME, organism-based; details: in vivo
[25] = MRT (0 to t) in male Sprague-Dawley rat at 10 mg/kg, po measured after 24 hrs by LC-MS analysis; assay type: ADME, organism-based; details: in vivo
[26] = Tmax in male Sprague-Dawley rat at 10 mg/kg, po measured after 24 hrs by LC-MS analysis; assay type: ADME, organism-based; details: in vivo
[27] = Cmax in male Sprague-Dawley rat at 1 mg/kg, iv measured after 24 hrs by LC-MS analysis; assay type: ADME, organism-based; details: in vivo
[28] = Solubility of compound in Watson's distilled pure water measured after 24 hrs by HPLC analysis; assay type: physicochemical
[29] = Cmax in male Sprague-Dawley rat at 10 mg/kg, po measured after 24 hrs by LC-MS analysis; assay type: ADME, organism-based; details: in vivo
[30] = Solubility of compound in phosphate buffer at pH 7.0 measured after 24 hrs by HPLC analysis; assay type: physicochemical
[31] = MRT (0 to infinity) in male Sprague-Dawley rat at 10 mg/kg, po measured after 24 hrs by LC-MS analysis; assay type: ADME, organism-based; details: in vivo
[32] = MRT (0 to t) in male Sprague-Dawley rat at 1 mg/kg, iv measured after 24 hrs by LC-MS analysis; assay type: ADME, organism-based; details: in vivo
[33] = Half-life in male Sprague-Dawley rat at 1 mg/kg, iv measured after 24 hrs by LC-MS analysis; assay type: ADME, organism-based; details: in vivo
[34] = Metabolic stability in dog liver microsomes assessed as half-life at 0.1 uM preincubated for 10 mins followed by NADPH addition and measured upto 60 mins by LC-MS/MS analysis; assay type: ADME, Canis lupus familiaris, Microsome; details: time < 70 min

SMILES | EC50 [1] [µM] | EC50 [2] [µM] | EC50 [4] [µM] | EC50 [5] [µM] | EC50 [6] [µM] | IC50 [8] [µM] | EC50 [9] [µM] | EC50 [10] [µM] | EC50 [11] [µM] | selectivity ratio [13] | CC50 at 120 h ([3]; MT4 cells) [µM] | also measured
N#Cc1ccc(Nc2nccc(Nc3c(F)cc(-c4ccncc4)cc3F)n2)cc1 | 0.006 | 0.299 | 0.057 | 0.004 | 0.002 | 0.031 | 0.002 | 0.064 | 0.01 | – | – | CC50 at 120 h ([3]; mt4): 6 µM; half-life at 0.1 µM [7]: 0.16 h; half-life at 0.1 µM [12]: 0.217 h
Cc1cc(-c2ccncc2)cc(C)c1Nc1nc(Nc2ccc(C#N)cc2)ncc1-c1ccnc(Cl)c1 | 0.056 | 1.76 | 0.083 | 0.055 | 0.019 | 0.098 | 0.006 | 0.597 | 0.026 | 27300 | 158 | –
Cc1cc(-c2cnc(Nc3ccc(C#N)cc3)nc2Nc2c(C)cc(-c3ccncc3)cc2C)ccn1 | 0.075 | 1.33 | 0.093 | 0.071 | 0.021 | 0.127 | 0.009 | 0.942 | 0.029 | 1630 | 14.9 | –
Cc1cc(-c2ccncc2)cc(C)c1Nc1nc(Nc2ccc(C#N)cc2)ncc1-c1cncc(N)c1 | 0.051 | 0.323 | 0.063 | 0.029 | 0.007 | 0.073 | 0.006 | 0.378 | 0.013 | 1050 | 6.38 | –
Cc1cc(-c2ccncc2)cc(C)c1Nc1nc(Nc2ccc(C#N)cc2)ncc1-c1ccc(F)nc1 | 0.048 | 1.16 | 0.076 | 0.051 | 0.009 | 0.086 | 0.009 | 0.48 | 0.014 | 5530 | 48.4 | –
Cc1cc(-c2ccncc2)cc(C)c1Nc1nc(Nc2ccc(C#N)cc2)ncc1-c1ccsc1 | 0.041 | 0.453 | 0.047 | 0.034 | 0.008 | 0.072 | 0.006 | 0.259 | 0.043 | > 45200 | > 264 | –
Cc1cc(-c2ccncc2)cc(C)c1Nc1nc(Nc2ccc(C#N)cc2)ncc1-c1ccc(N)nc1 | 0.041 | 1.14 | 0.05 | 0.039 | 0.011 | 0.094 | 0.008 | 0.156 | 0.011 | 575 | 4.87 | –
COc1cc(-c2cnc(Nc3ccc(C#N)cc3)nc2Nc2c(C)cc(-c3ccncc3)cc2C)ccn1 | 0.061 | 0.611 | 0.091 | 0.051 | 0.021 | 0.115 | 0.009 | 0.594 | 0.016 | 6750 | 59.9 | –
Cc1ccc(-c2cnc(Nc3ccc(C#N)cc3)nc2Nc2c(C)cc(-c3ccncc3)cc2C)cn1 | 0.047 | 0.496 | 0.054 | 0.049 | 0.006 | 0.132 | 0.005 | 0.401 | 0.007 | 38900 | 198 | –
Cc1cc(-c2ccncc2)cc(C)c1Nc1nc(Nc2ccc(C#N)cc2)ncc1-c1cncc(Cl)c1 | 0.078 | 1.53 | 0.121 | 0.117 | 0.037 | 0.197 | 0.008 | 0.982 | 0.045 | > 32800 | > 248 | –
Cc1cc(-c2ccncc2)cc(C)c1Nc1nc(Nc2ccc(C#N)cc2)ncc1-c1ccncc1 | 0.139 | 1.98 | 0.182 | 0.092 | 0.023 | 0.059 | 0.014 | 1.17 | 0.041 | > 19100 | > 266 | –
Cc1cc(-c2ccncc2)cc(C)c1Nc1nc(Nc2ccc(C#N)cc2)ncc1-c1ccco1 | 0.024 | 0.142 | 0.015 | 0.007 | 0.003 | 0.084 | 0.004 | 0.102 | 0.007 | 2060 | 7.97 | –
Cc1cc(-c2ccncc2)cc(C)c1Nc1nc(Nc2ccc(C#N)cc2)ncc1-c1ccnc(F)c1 | 0.045 | 1.37 | 0.045 | 0.094 | 0.007 | 0.111 | 0.008 | 0.425 | 0.008 | > 31500 | > 256 | –
Cc1cc(-c2ccncc2)cc(C)c1Nc1nc(Nc2ccc(C#N)cc2)ncc1-c1cn[nH]c1.Cl | – | – | – | – | – | – | – | – | – | – | – | clearance [14]: 30.3 mL/min/kg; AUC(0-t) at 24 h [15]: 600 ng·h/mL; solubility at 24 h [16]: < 1 µg/mL; MRT inf [17]: 1.14 h; solubility at 24 h [18]: 782 µg/mL; Tmax [19]: 4.8 min; half-life [20]: 2.92 h; AUC(0-inf) [21]: 3470 ng·h/mL; AUC(0-inf) [22]: 605 ng·h/mL; bioavailability [23]: 57.4%; AUC(0-t) at 24 h [24]: 3460 ng·h/mL; MRT last at 24 h [25]: 3.04 h; Tmax [26]: 1 h; Cmax [27]: 572 ng/mL; solubility at 24 h [28]: 366 µg/mL; Cmax [29]: 862 ng/mL; solubility at 24 h [30]: < 1 µg/mL; MRT inf [31]: 3.14 h; MRT last at 24 h [32]: 1.1 h; half-life [33]: 0.84 h
Cc1cc(-c2ccncc2)cc(C)c1Nc1nc(Nc2ccc(C#N)cc2)ncc1-c1cccs1 | 0.039 | 0.136 | 0.029 | 0.018 | 0.005 | 0.075 | 0.011 | 0.148 | 0.012 | > 24100 | > 264 | –
Cc1cc(C#N)cc(C)c1Oc1nc(Nc2ccc(C#N)cc2)nc(N)c1Br [ETRAVIRINE] | 0.013 | 0.012 | 0.017 | 0.004 | – | – | – | 0.043 | – | – | > 4.61 | solubility at 24 h [16]: < 1 µg/mL; half-life at 0.1 µM [34]: 2.53 h; solubility at 24 h [28]: < 1 µg/mL; solubility at 24 h [30]: < 1 µg/mL; half-life at 0.1 µM [7]: 1.07 h; half-life at 0.1 µM [12]: 0.225 h
Cc1cc(/C=C/C#N)cc(C)c1Nc1ccnc(Nc2ccc(C#N)cc2)n1 [RILPIVIRINE] | – | – | – | – | – | – | 0.004 | – | – | – | > 6.35 | half-life at 0.1 µM [34]: 1.32 h; half-life at 0.1 µM [7]: 0.267 h; half-life at 0.1 µM [12]: 0.121 h
